Data as given in patent US9034865B2, “Pyrido [4,3-B] indole and pyrido [3,4-B] indole derivatives and methods of use” (Medivation Technologies, Inc., priority 2010, dated 2015).

Experiments:
[1] = biological target: T1, human recombinant serotonin (5-Hydroxytryptamine) 5-HT7 receptor (Homo sapiens, UniProt P34969); assay: Serotonin 5-HT7 radioligand binding ([3H]LSD); settings: compound at 0.1 μM; read-out: Percentage inhibition of ligand binding, Serotonin (0.1 μM) 5-HT7
T1 construct: expressed in transfected cells; host or cells: CHO
T1 sequence (P34969 whole entry): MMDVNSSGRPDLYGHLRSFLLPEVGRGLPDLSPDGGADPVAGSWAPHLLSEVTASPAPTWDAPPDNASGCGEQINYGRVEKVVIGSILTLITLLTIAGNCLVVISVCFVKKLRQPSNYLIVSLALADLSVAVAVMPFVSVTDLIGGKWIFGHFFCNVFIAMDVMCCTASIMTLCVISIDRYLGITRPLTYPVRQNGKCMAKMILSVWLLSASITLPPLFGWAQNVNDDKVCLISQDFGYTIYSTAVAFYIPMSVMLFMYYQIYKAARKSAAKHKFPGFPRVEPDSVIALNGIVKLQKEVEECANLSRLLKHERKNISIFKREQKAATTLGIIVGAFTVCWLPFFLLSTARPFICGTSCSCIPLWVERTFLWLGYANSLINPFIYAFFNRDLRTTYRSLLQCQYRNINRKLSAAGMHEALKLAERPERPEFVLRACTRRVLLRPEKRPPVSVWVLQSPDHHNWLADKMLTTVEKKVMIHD
Protocol: To evaluate in radioligand binding assays the activity of compounds of the invention, human recombinant serotonin (5-Hydroxytryptamine) 5-HT7 receptor expressed in Chinese hamster ovary (CHO) cells (Roth, B. et al, J. Pharmacol. Exp. Ther. 268:1403, 1994; Shen, Y. et al, J. Biol. Chem. 268:18200, 1993) in a modified Tris-HCl buffer (50 mM Tris-HCl, pH 7.4, 10 mM MgCl2, 0.5 mM EDTA) was used. Compounds of invention were incubated with 5.5 nM [^3H] Lysergic acid diethylamide (LSD) for 2 h at 25° C. Non-specific binding was estimated in the presence of 10 μM Serotonin (5-HT). Receptor proteins were filtered and washed, the filters were then counted to determine [^3H]LSD specifically bound. Compounds were screened at 1 μM or lower, using 1% DMSO as vehicle. Biochemical assay results are presented as the percent inhibition of specific binding in Table 4.

[2] = biological target: T2, human recombinant serotonin (5-Hydroxytryptamine) 5-HT2C receptor (Homo sapiens, UniProt P28335); assay: Serotonin 5-HT2C radioligand binding ([3H]Mesulergine); settings: compound at 0.1 μM; read-out: Percentage inhibition of ligand binding, Serotonin (0.1 μM) 5-HT2C
T2 construct: expressed in transfected cells; host or cells: CHO-K1
T2 sequence (P28335 33-458): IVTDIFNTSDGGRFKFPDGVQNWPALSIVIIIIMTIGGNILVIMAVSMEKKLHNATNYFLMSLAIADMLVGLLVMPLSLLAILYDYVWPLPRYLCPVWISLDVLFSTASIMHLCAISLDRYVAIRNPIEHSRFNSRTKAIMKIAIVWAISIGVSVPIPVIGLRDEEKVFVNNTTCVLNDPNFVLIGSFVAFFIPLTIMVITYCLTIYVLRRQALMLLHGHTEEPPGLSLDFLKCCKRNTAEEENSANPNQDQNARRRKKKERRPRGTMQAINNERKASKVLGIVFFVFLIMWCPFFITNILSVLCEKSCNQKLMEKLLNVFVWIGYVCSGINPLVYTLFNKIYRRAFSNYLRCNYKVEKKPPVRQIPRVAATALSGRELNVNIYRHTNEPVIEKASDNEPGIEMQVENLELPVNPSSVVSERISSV
Protocol: To evaluate in radioligand binding assays the activity of compounds of the invention, human recombinant serotonin (5-Hydroxytryptamine) 5-HT2C receptor expressed in Chinese hamster ovary (CHO) K1 cells (Wolf, W. et al, J. Neurochem. 69:1449, 1997) in a modified Tris-HCl buffer (50 mM Tris-HCl, pH 7.4, 0.1% Ascorbic Acid, 10 μM Pargyline) was used. Compounds of the invention were incubated with 1 nM [^3H]Mesulergine for 60 min at 25° C. Non-specific binding was estimated in the presence of 1 μM Mianserin. Receptor proteins were filtered and washed, the filters were then counted to determine [^3H]Mesulergine specifically bound. Compounds were screened at 1 μM or lower, using 1% DMSO as vehicle. Biochemical assay results are presented as the percent inhibition of specific binding in Table 4.

[3] = biological target: T3, human recombinant serotonin (5-Hydroxytryptamine) 5-HT6 receptor (Homo sapiens, UniProt P50406); assay: Serotonin 5-HT6 radioligand binding ([3H]LSD); settings: compound at 0.1 μM; read-out: Percentage inhibition of ligand binding, Serotonin (0.1 μM) 5-HT6
T3 construct: expressed in transfected cells; host or cells: HeLa
T3 sequence (P50406 whole entry): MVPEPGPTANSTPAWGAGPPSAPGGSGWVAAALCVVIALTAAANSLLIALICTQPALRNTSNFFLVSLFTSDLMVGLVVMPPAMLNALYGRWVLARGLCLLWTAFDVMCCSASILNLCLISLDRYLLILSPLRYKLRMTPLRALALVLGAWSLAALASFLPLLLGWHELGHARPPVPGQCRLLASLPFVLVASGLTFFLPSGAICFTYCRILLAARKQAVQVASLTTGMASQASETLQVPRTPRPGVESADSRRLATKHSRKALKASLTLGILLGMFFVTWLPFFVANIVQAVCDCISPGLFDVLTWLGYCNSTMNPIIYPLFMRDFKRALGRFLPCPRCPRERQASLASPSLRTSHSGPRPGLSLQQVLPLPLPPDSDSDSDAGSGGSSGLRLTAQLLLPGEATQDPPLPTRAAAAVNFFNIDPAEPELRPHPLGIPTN
Protocol: To evaluate in radioligand binding assays the activity of compounds of the invention, human recombinant serotonin (5-Hydroxytryptamine) 5-HT6 receptor expressed in human HeLa cells (Monsma, F. Jr. et al, Mol. Pharmacol. 43:320, 1993) in a modified Tris-HCl buffer (50 mM Tris-HCl, pH 7.4, 150 mM NaCl, 2 mM Ascorbic Acid, 0.001% BSA) was used. Compounds of the invention were incubated with 1.5 nM [3H]Lysergic acid diethylamide (LSD) for 120 min at 37° C. Non-specific binding was estimated in the presence of 5 μM Serotonin (5-HT). Receptor proteins were filtered and washed, the filters were then counted to determine [3H]LSD specifically bound. Compounds were screened at 1 μM or lower, using 1% DMSO as vehicle. Biochemical assay results are presented as the percent inhibition of specific binding in Table 4.

[4] = biological target: T4, human recombinant serotonin (5-Hydroxytryptamine) 5-HT2A receptor (Homo sapiens, UniProt P28223); assay: Serotonin 5-HT2A radioligand binding ([3H]Ketanserin); settings: compound at 0.1 μM; read-out: Percentage inhibition of ligand binding, Serotonin (0.1 μM) 5-HT2A
T4 construct: expressed in transfected cells; host or cells: CHO-K1
T4 sequence (P28223 whole entry): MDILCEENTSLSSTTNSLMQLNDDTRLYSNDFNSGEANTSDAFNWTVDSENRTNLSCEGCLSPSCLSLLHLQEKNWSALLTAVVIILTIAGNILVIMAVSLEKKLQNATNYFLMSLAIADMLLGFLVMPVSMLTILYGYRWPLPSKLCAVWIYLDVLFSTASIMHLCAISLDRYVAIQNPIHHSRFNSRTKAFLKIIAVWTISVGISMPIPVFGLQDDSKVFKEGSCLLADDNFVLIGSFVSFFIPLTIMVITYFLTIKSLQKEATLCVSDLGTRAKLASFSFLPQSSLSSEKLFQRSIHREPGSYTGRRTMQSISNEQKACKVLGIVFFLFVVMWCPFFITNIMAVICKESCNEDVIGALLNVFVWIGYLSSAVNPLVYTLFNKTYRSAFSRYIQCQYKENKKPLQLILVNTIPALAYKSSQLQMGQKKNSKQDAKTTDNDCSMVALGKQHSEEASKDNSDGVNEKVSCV
Protocol: To evaluate in radioligand binding assays the activity of compounds of the invention, human recombinant serotonin (5-Hydroxytryptamine) 5-HT2A receptor expressed in Chinese hamster ovary (CHO) K1 cells (Bonhaus, D. et al, Br. J. Pharmacol. 115:622, 1995; Saucier, C. et al, J. Neurochem. 68:1998, 1997) in a 50 mM Tris-HCl buffer, pH 7.4, was used. Compounds of the invention were incubated with 0.5 nM [^3H]Ketanserin for 60 min at 25° C. Non-specific binding was estimated in the presence of 1 μM Mianserin. Receptor proteins were filtered and washed, the filters were then counted to determine [^3H]Ketanserin specifically bound. Compounds were screened at 1 μM or lower, using 1% DMSO as vehicle. Biochemical assay results are presented as the percent inhibition of specific binding in Table 4.

[5] = biological target: T5, human recombinant dopamine D2L receptor (Homo sapiens, UniProt P14416); assay: Dopamine D2L radioligand binding ([3H]Spiperone); settings: compound at 1 μM; read-out: Percentage inhibition of ligand binding, Dopamine (1 μM) D2L
T5 construct: expressed in transfected cells; host or cells: CHO
T5 sequence (P14416 whole entry): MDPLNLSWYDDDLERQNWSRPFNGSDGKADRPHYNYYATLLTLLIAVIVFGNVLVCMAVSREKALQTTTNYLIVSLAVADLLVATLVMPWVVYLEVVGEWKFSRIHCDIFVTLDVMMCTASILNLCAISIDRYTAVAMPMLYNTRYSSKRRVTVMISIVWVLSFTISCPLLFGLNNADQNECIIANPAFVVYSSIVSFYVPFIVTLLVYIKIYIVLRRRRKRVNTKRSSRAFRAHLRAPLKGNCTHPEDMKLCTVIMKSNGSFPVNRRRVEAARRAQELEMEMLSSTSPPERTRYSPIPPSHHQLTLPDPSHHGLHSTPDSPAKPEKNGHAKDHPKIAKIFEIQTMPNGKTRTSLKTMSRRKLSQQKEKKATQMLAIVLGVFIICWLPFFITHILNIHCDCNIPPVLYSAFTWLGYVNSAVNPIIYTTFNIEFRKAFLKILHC
Protocol: To evaluate in radioligand binding assays the activity of compounds of the invention, human recombinant dopamine D2L receptor expressed in Chinese hamster ovary (CHO) cells (Grandy, D. et al, Proc. Natl. Acad. Sci. USA. 86:9762, 1989; Hayes, G. et al, Mol. Endocrinol. 6:920, 1992) in a modified Tris-HCl buffer (50 mM Tris-HCl, pH 7.4, 1.4 mM Ascorbic Acid, 0.001% BSA, 150 mM NaCl) was used. Compounds of the invention were incubated with 0.16 nM [^3H]Spiperonefor 120 min at 25° C. Non-specific binding was estimated in the presence of 10 μM Haloperidol. Receptor proteins were filtered and washed, the filters were then counted to determine [^3H]Spiperone specifically bound. Compounds were screened at 1 μM or lower, using 1% DMSO as vehicle. Biochemical assay results are presented as the percent inhibition of specific binding in Table 3.

[6] = biological target: T6, human recombinant histamine H1 receptor (Homo sapiens, UniProt P35367); assay: Histamine H1 radioligand binding ([3H]Pyrilamine); settings: compound at 1 μM; 1.2 nM [3H]Pyrilamine; read-out: Binding data (Percentage inhibition) Histamine H1 (1 μM)
T6 construct: expressed in transfected cells; host or cells: CHO-K1
T6 sequence (P35367 whole entry): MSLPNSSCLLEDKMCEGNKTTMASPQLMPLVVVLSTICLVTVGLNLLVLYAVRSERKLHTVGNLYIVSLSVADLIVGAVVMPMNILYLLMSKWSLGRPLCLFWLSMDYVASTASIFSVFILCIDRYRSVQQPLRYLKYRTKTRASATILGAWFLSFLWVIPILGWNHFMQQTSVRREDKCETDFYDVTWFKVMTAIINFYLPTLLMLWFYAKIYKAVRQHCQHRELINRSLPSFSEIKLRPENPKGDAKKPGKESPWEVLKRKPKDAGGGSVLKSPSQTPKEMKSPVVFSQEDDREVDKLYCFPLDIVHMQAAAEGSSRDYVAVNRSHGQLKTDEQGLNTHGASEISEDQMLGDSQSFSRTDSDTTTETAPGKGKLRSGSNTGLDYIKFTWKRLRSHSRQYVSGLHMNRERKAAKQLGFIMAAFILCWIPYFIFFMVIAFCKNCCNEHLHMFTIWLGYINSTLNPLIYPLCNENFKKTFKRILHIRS
Protocol: To evaluate in radioligand binding assays the activity of compounds of the invention, human recombinant histamine H1 receptor expressed in Chinese hamster ovary (CHO) K1 cells (De Backer, M. et al, Biochem. Biophys. Res. Comm. 197(3):1601, 1993) in a modified Tris-HCl buffer (50 mM Tris-HCl, pH 7.4, 2 mM MgCl2, 100 mM NaCl, 250 mM Sucrose) was used. Compounds of the invention were incubated with 1.2 nM [^3H]Pyrilamine for 180 min at 25° C. Non-specific binding was estimated in the presence of 1 μM Pyrilamine. Receptor proteins were filtered and washed, the filters were then counted to determine [^3H]Pyrilamine specifically bound. Compounds were screened at 1 μM or lower, using 1% DMSO as vehicle. Biochemical assay results are presented as the percent inhibition of specific binding in Table 2.

Cc1cc(CCc2ccc(C)nc2)c2[nH]c3c(c2c1)CN(C)CC3 [Compound 2]
inhibition at 0.1 µM [1]: 17% | inhibition at 0.1 µM [2]: 36% | inhibition at 0.1 µM [3]: 4% | inhibition at 0.1 µM [4]: 6% | inhibition at 1 µM [5]: 6% | inhibition at 1 µM [6]: 58%

Cc1cc(C#Cc2ccc(C)nc2)c2[nH]c3c(c2c1)CN(C)CC3 [Compound 6, 2,8-dimethyl-6-((6-methylpyridin-3-yl)ethynyl)-2,3,4,5-tetrahydro-1H-pyrido[4,3-b]indole]
inhibition at 0.1 µM [1]: 43% | inhibition at 0.1 µM [2]: 55% | inhibition at 0.1 µM [3]: 24% | inhibition at 0.1 µM [4]: 41% | inhibition at 1 µM [5]: 7% | inhibition at 1 µM [6]: 16%

CN1CCc2[nH]c3c(NCc4ccncc4)cccc3c2C1 [Compound 4]
inhibition at 0.1 µM [1]: -10% | inhibition at 0.1 µM [2]: 7% | inhibition at 0.1 µM [3]: 2% | inhibition at 0.1 µM [4]: -7% | inhibition at 1 µM [5]: 5% | inhibition at 1 µM [6]: 15%

Cc1cc(C#Cc2ccncc2)c2[nH]c3c(c2c1)CN(C)CC3 [Compound 5]
inhibition at 0.1 µM [1]: 45% | inhibition at 0.1 µM [2]: 45% | inhibition at 0.1 µM [3]: 30% | inhibition at 0.1 µM [4]: 54% | inhibition at 1 µM [5]: 10% | inhibition at 1 µM [6]: 17%

CN1CCc2[nH]c3c(N(C)Cc4ccccc4)cccc3c2C1 [Compound 1, benzyl-methyl-(2-methyl-2,3,4,5-tetrahydro-1H-pyrido[4,3-b]indol-6-yl)-amine]
inhibition at 0.1 µM [1]: 9% | inhibition at 0.1 µM [2]: 55% | inhibition at 0.1 µM [3]: 44% | inhibition at 0.1 µM [4]: 73% | inhibition at 1 µM [5]: 21% | inhibition at 1 µM [6]: 6%

CN1CCc2[nH]c3c(NCc4ccccc4)cccc3c2C1 [Compound 3]
inhibition at 0.1 µM [1]: 14% | inhibition at 0.1 µM [2]: 41% | inhibition at 0.1 µM [3]: 13% | inhibition at 0.1 µM [4]: 40% | inhibition at 1 µM [5]: 19% | inhibition at 1 µM [6]: 14%
